Legend:
[1] = test system: AKT phosphorylation in human monocyte-like cell line THP-1; assay: AKT phosphorylation inhibitory activity in MCP-1-stimulated THP-1 cells (ELISA); type: cell-based; details: 1 μmol/L solution of each compound, MCP-1 stimulation, read-out: AKT phosphorylation inhibition ratio
Method: (1) The AKT phosphorylation inhibitory activity of a compound was evaluated according to the following procedure. (2) Human monocyte-like cell line THP-1 was washed with RPMI-1640 media, incubated in the presence of 5% CO2 at 37° C. for 3 hours, washed with Hank's balanced salt solution (HBSS), adjusted to a cell concentration of 6.6×10^6/mL, and then used in an experiment. (3) 30 μL of the cell suspension and 60 μL of each compound solution containing 0.2% DMSO/HBSS were mixed and then preincubated at 37° C. for 5 minutes. 30 μL of HBSS containing 4 μg/mL of MCP-1 was added thereto and then incubated for 30 seconds at 37° C. (4) 30 μl of a cell lysate (20 mmol/L Tris-HCl (pH 7.5), 150 mmol/L NaCl, 1 mmol/L Na2EDTA, 1 mmol/L EGTA, 1% Triton, 2.5 mmol/L sodium pyrophosphate, 1 mmol/L β-glycerophosphate, 1 mmol/L Na3VO4, 1 μg/ml leupeptin, 50 nmol/L APMSF) was added thereto to lyse cells. (5) The amount of AKT phosphorylation in the cell lysate was measured by ELISA method. (6) Anti-phospho-Akt (Ser473) antibodies (clone 193H12, derived from a rabbit) were immobilized onto the solid phase of a micro well plate. 100 μL of the prepared cell lysate was added to the micro well plate, incubated for 2 hours at 37° C., and then washed four times with Phosphate Buffered Saline containing 0.05% Tween-20. (7) An anti-AKT1 antibody (clone 2H10, derived from a mouse) was added thereto, incubated for 1 hour at 37° C., washed similarly, and then reacted with an HRP-labeled anti-mouse IgG antibody. (8) After incubating at 37° C. for 30 minutes and then washing similarly, 100 μL of TMB (3,3′,5,5″-tetramethylbenzidine) was added thereto, followed by reacting at room temperature for 30 minutes. (9) 100 μL of 1 mol/L sulfuric acid was added to quench the color reaction and then the absorbance at 450 nm was measured. (10) A series of diluted cell lysates of a positive control (a sample in the absence of a compound) were used to prepare a calibration curve, the amount of AKT phosphorylation in a sample in the absence of MCP-1 was defined as 0% activity to calculate an inhibition ratio. The measurement was performed for a 1 μmol/L solution of each compound.

[2] = test system: Salmonella typhimurium TA98 line, TA100 line; assay: FAT test (mutagenicity); parameters: key: When the mutagenicity is negative, the compound is shown as (−); When positive, the compound is shown as (+); details: TA98 and TA100 lines; non-metabolism-activation and metabolism-activation conditions
Method: 20 μL of Salmonella enterica subsp. typhimurium (Salmonella typhimurium TA98 line, TA100 line) cryopreserved was inoculated to 10 mL of liquid nutrient medium (2.5% Oxoid nutrient broth No. 2) and then precultured at 37° C. for 10 hours with shaking. Regarding TA98 line, after 9 mL of a bacterial suspension was centrifuged (2000×g, 10 minutes) to remove the culture solution, the bacteria was suspended in 9 mL of Micro F buffer solution (K2HPO4: 3.5 g/L, KH2PO4: 1 g/L, (NH4)2SO4: 1 g/L, tri-sodium citric acid dihydrate: 0.25 g/L, MgSO4.7H2O: 0.1 g/L), and then added to 110 mL of Exposure media (Micro F buffer solution containing biotin: 8 μg/mL, histidine: 0.2 μg/mL, glucose: 8 mg/mL). Regarding TA 100 line, 120 mL of Exposure media was added to 3.16 mL of the bacterial suspension to prepare a test bacterial suspension. 12 μL of a solution of a test substance in DMSO (diluted eight times in a common ratio of 2 from the maximum dose of 50 mg/mL); 12 μL of DMSO as a negative control; 50 μg/mL 4-nitroquinoline-1-oxide solution in DMSO for TA98 line or 0.25 μg/mL 2-(2-furyl)-3-(5-nitro-2-furyl)acrylamide solution in DMSO as a positive control for TA 100 line in the case of a non-metabolism-activation condition; 12 μL of 40 μg/mL 2-aminoanthracene solution in DMSO for TA98 line or 20 μg/mL of 2-aminoanthracene solution in DMSO for TA100 line in the case of a metabolism-activation condition; were each mixed with 588 μL of the test bacterial suspension (in the case of a metabolism activation condition, a mixed solution of 498 μL of the test bacterial suspension and 90 μL S9 mix) and then cultured at 37° C. at 90 minutes with shaking. 460 μL of the bacterial suspension to which a test substance was exposed was mixed with 230 μL of Indicator media (a Micro F buffer solution containing 8 μg/mL biotin, 0.2 μg/mL histidine, 8 mg/mL glucose, and 37.5 μg/mL bromocresol purple). 50 μL thereof was dispensed to microplate 48 wells/dose and then statically cultured at 37° C. for 3 days. In a well containing bacteria which obtained proliferation potency by mutation of the amino acid (histidine) synthetase gene, the change of pH caused the color change from purple to yellow. Thus, in 48 wells per dose, the number of the bacteria-proliferation wells in which the color changed to yellow was counted, compared with a group of negative controls, and then evaluated. When the mutagenicity is negative, the compound is shown as (−). When positive, the compound is shown as (+).

PI-3 kinase γ [3] = target: T1, PI-3 kinase γ (Homo sapiens, UniProt P48736); assay: PI3Kγ inhibitory activity, PI3-kinase HTRF assay (inhibition ratio); type: biochemical; details: 0.5 h; PI3Kγ, compound at 10 μM
Method in brief: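 Single-concentration inhibition ratio (50 or 10 μmol/L compound) versus no-compound (100%) and no-enzyme (0%) wells. Reaction: PI-3 kinase γ, PIP2, ATP, MgCl2/DTT, 30 min at RT after 10 min preincubation. Read-out: HTRF 665/620 nm after 18 h detection.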

PI-3 kinase γ [4] = target: T1, PI-3 kinase γ; assay: PI3Kγ inhibitory activity (Ki value), HTRF; type: biochemical; details: Ki=IC50/(1+10 μM ATP/Km)
Method: The PI3Kγ inhibitory activity (Ki value) of a compound was evaluated according to the following procedure:
5 μL of a compound solution containing 10% DMSO and 200 μmol/L of a compound was changed to 5 μL of a compound solution containing 10% DMSO and either 200, 64, 20, 6.4, 2, 0.64, or 0.20 μmol/L of the compound (optionally, this is diluted to a lower concentration). Using a method similar to the method for measuring PI3Kγ inhibitory activity, inhibition ratios were measured in the presence of the compound at 50, 16, 5, 1.6, 0.5, 0.16, and 0.05 μmol/L (optionally, a lower concentration). Then an IC50 value was calculated by a logistic approximation method or the linear regression method using two concentrations that across 50% inhibition. Separately, the ATP concentration in the reaction solution (40 μmol/L ATP, 10 mmol/L MgCl2, 5 mmol/L DTT) at the time of the start of a reaction in the absence of the compound was changed to 80, 40, 20, 10, 5, 2.5, 1.25, or 0.625 μmol/L. Then, HTRF ratios were measured by a similar method. The value obtained by subtracting the HTRF ratio at each ATP concentration from the HTRF ratio in the absence of PI-3 kinase γ was defined as the value obtained by multiplying reaction rate (v) at each ATP concentration with a constant. The Michaelis-Menten constant Km was then calculated by the Lineweaver-Burk plot method. The Ki value of a compound was calculated by the following formula.
Ki=IC50 value/(1+10 μM (test ATP concentration)/Km (μM))

T1 sequence (P48736 whole entry): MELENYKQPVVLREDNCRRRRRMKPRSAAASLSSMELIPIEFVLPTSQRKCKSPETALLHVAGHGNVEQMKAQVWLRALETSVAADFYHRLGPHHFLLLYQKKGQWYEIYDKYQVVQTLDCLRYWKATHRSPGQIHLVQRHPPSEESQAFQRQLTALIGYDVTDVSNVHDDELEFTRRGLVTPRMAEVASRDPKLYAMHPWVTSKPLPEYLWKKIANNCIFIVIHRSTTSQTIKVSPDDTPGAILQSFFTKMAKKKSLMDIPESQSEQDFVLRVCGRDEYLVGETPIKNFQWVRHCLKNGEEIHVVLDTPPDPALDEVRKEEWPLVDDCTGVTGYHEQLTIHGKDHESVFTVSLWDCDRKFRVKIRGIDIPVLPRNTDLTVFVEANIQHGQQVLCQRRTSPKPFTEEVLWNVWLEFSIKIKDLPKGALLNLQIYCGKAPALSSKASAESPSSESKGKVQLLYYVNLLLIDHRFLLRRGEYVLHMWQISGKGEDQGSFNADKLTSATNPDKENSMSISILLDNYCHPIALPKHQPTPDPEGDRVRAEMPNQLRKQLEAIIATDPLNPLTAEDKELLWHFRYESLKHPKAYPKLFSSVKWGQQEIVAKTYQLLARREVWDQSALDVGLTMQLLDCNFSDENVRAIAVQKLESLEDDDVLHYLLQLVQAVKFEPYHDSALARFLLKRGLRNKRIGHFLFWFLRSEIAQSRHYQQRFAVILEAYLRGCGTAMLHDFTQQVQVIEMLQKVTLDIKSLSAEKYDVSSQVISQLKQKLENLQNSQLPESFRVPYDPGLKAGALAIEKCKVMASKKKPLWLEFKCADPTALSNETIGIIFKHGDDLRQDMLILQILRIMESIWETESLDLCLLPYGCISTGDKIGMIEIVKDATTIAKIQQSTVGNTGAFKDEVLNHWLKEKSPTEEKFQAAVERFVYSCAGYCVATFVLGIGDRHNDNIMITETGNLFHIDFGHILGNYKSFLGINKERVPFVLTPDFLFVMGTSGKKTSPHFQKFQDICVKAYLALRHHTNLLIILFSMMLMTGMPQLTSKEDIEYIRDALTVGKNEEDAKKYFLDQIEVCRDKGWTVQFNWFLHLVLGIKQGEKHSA

COc1cc(N2CCc3nc(NC(=O)NCCC(=O)N4CCCCC4)sc3C2)nc(OC)n1 [Compound I-266]
inhibition [1]: > 99.5%
mutagenicity (FAT test) [2]: (−)
inhibition at 10 µM (PI-3 kinase γ [3]): ≥ 95%
Ki (PI-3 kinase γ [4]): 36 nM

Source: patent US20110230472A1, “RING-FUSED AZOLE DERIVATIVE HAVING PI3K-INHIBITING ACTIVITY” (Shionogi & Co., Ltd., priority 2008, published 2011)
